Results published in patent publication US8853424B2 (Japan Science and Technology Agency, priority 2008, dated 2014).
Like-named read-outs stand apart in the source and are kept apart here.

Legend:
[1] = system: Truncated N-terminal huntington 150 Q-EGFP-Neuron 2a cells; experiment: Measurement of x-Fold (polyglutamine aggregation inhibitory activity); assay type: cell-based
Experimental: In the present invention, the polyglutamine aggregation inhibitory activity (x-Fold) can be measured, for example, by the method described in the Example.
The number of the aggregated cells, and the total number of cells were counted by Array Scan V T1 (manufactured by Cellomics, Pittuburg, USA), and the ratio of the aggregated cells to the total number of cells was determined (x-Fold). […]

[2] = system: SOC (store operated calcium channel); experiment: Measurement of SOC IC50 (thapsigargin store depletion, calcium re-addition, CHO cells); assay type: cell-based; conditions: read-out: SOC IC50
Experimental: The SOC (store operated calcium channel)-suppressive action can be measured by the method described in the Example and using, for example, FDSS 3000.
CHO cell culture medium was replaced with a BSS solution which is an extracellular fluidfree of calcium, the compound of the present invention was added 1 min later, and 1 μM thapsigargin was allowed to act thereon 2 min later to deplete intracellular calcium store. […]

transglutaminase (TGase) = experiment: Measurement of TG (TGase inhibitory activity, monodansyl cadaverine / N,N-dimethylcasein fluorescence, FDSS 3000); assay type: biochemical
Summary of the method: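 Compound (1 μL of 10 mM stock) added to 0.1 mL reaction: 100 mM HEPES-NaOH pH 7.5, 1 mM CaCl2, 20 μM monodansyl cadaverine, 0.05 mg/mL N,N-dimethylcasein, 5 μg/mL TGase. Rate of fluorescence change at 340 nm measured; DMSO control set to 100; TG50 is the concentration halving activity.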

[3] = polyglutamine aggregation inhibitory activity, Table 1
[4] = ratio of aggregated cells to total number of cells, compound 20 μM, 20 hr, almost 1 without compound, smaller = stronger inhibition
[5] = Cricetulus griseus, CHO, CHO cells, 1 μM thapsigargin, 2 mM calcium chloride
[6] = Cricetulus griseus, CHO, Table 1
[7] = TGase activity with compound (10 mM, 1 μL in 0.1 ml enzyme reaction solution), DMSO control taken as 100
[8] = TGase inhibitory activity value, Table 1
[9] = CHO cells, 1 μM thapsigargin, 2 mM calcium chloride

| Compound | IC50 [2, 5] | IC50 [2, 6] | TGase activity remaining (% of DMSO control = 100) (transglutaminase (TGase); [7]) | TGase activity remaining (% of DMSO control = 100) (transglutaminase (TGase); [8]) | IC50 [2, 9] | x-Fold [1, 3] | x-Fold [1, 4] | also measured |
| --- | --- | --- | --- | --- | --- | --- | --- | --- |
| Cc1ccc(B(SCCN(C)C)c2ccc(C)c(Cl)c2)cc1Cl [Example 295, di(3-chloro-4-methylphenyl)dimethylaminoethylthioborane] | 800 nM | 800 nM | 107 | 107 | – | 0.92 | 0.92 | – |
| NC(=O)NCCCC(N)C(=O)OB(c1ccccc1)c1ccccc1 (centres unmarked) [Example 307, diphenyl(citrullinate-O,N)borane] | 500 nM | 500 nM | 54 | 54 | – | 1.06 | 1.06 | – |
| NCCCC(N)C(=O)OB(c1ccccc1)c1ccccc1 (centres unmarked) [Example 308, diphenyl(ornithinate-O,N)borane] | 500 nM | 500 nM | 27 | – | – | – | 1.05 | x-Fold ([1]; polyglutamine aggregation inhibitory activity, Table 1, listed as 7020): 1.05; TGase activity remaining (% of DMSO control = 100) (transglutaminase (TGase); TGase inhibitory activity value, Table 1, listed as 7020): 27 |
| Cc1ccc(B(O)c2ccc(COCc3ccc(B(O)c4ccc(C)c(Cl)c4)cc3)cc2)cc1Cl [Example 322, bis(4,4′-(3-chloro-4-methylphenylhydroxyboryl)benzyl)ether] | – | – | 98 | – | 200 nM | – | 0.32 | – |
| OB(c1ccc(Oc2ccc(B(O)c3ccc(C(F)(F)F)cc3)cc2)cc1)c1ccc(C(F)(F)F)cc1 [Example 325, bis(4-(4-trifluoromethylphenylhydroxyboryl)phenyl)ether] | 4000 nM | 4000 nM | 92 | 92 | – | 0.99 | 0.99 | – |
| OB(c1ccccc1)c1ccc(COCc2ccccc2B(O)c2ccccc2)cc1 [Example 331, (2-(phenylhydroxyboryl)benzyl)(4-(phenylhydroxyboryl)benzyl)ether] | 1000 nM | 1000 nM | 101 | 101 | – | 0.98 | 0.98 | – |
| Cc1ccc(B(O)c2ccc(COCc3ccc(B(O)c4ccc(C)cc4)cc3)cc2)cc1 [Example 361, bis(4-(4-methylphenylhydroxyboryl)benzyl)ether] | > 20000 nM | > 20000 nM | 100 | 100 | – | 0.88 | 0.88 | – |
| CC(C)(C)c1cc(B(O)c2ccccc2)c2c(c1)C(C)(C)c1cc(C(C)(C)C)cc(B(O)c3ccccc3)c1O2 [Example 377, 4,5-di(phenylhydrixyboryl)-2,7-di-tert-butyl-9,9-dimethylxanthrene] | > 20000 nM | > 20000 nM | 70 | 70 | – | 0.75 | 0.75 | – |
| NC(=O)CC(N)C(=O)OB(c1ccccc1)c1cccc(COCc2cccc(B(OC(=O)C(N)CC(N)=O)c3ccccc3)c2)c1 (centres unmarked) [Example 404, bis(3,3′-(phenyl-asparagineboryl)benzyl)ether] | 4000 nM | – | 105 | – | – | – | 1.07 | x-Fold ([1]; polyglutamine aggregation, Truncated N-terminal huntington 150 Q-EGFP-Neuron 2a cells, listed as 2023): 1.07; IC50 ([2]; Cricetulus griseus, CHO, CHO cells, thapsigargin store depletion): 4000 nM; TGase activity remaining (% of DMSO control = 100) (transglutaminase (TGase); TGase inhibitory activity measurement, unit not given, listed as 2023): 105 |

Second part, led by results:

| IC50 [2, 5] | IC50 [2, 6] | TGase activity remaining (% of DMSO control = 100) (transglutaminase (TGase); [7]) | TGase activity remaining (% of DMSO control = 100) (transglutaminase (TGase); [8]) | IC50 [2, 9] | Compound | x-Fold [1, 3] | x-Fold [1, 4] | also measured |
| --- | --- | --- | --- | --- | --- | --- | --- | --- |
| 200 nM | 200 nM | 21 | 21 | – | NCCOB(c1ccccc1)c1ccc(COCc2cccc(B(OCCN)c3ccccc3)c2)cc1 [Example 332, (3-(phenylaminoethoxyboryl)benzyl)(4-(phenylaminoethoxyboryl)benzyl)ether] | 0.98 | 0.98 | – |
| 300 nM | 300 nM | 21 | 21 | – | NCCOB(c1ccccc1)c1cccc(COCc2ccccc2B(OCCN)c2ccccc2)c1 [Example 334] | 1.02 | 1.02 | – |
| 2000 nM | 2000 nM | 16 | 16 | – | NCCOB(c1ccccc1)c1ccc(COc2ccc(B(OCCN)c3ccccc3)cc2)cc1 [Example 371, (4-phenylaminoethoxyborylphenyl)(4′-phenylaminoethoxyborylbenzyl)ether] | 0.85 | 0.85 | – |
| – | – | 10 | 10 | 500 nM | CNCCOB(c1ccccc1)c1ccc(Oc2ccc(B(OCCNC)c3ccccc3)cc2)cc1 [Example 386, bis(4,4′-(phenyl-N-methylaminoethoxyboryl)phenyl)ether] | 0.98 | 0.98 | – |
| – | – | 41 | – | 500 nM | NC(=O)CCC(N)C(=O)OB(c1ccccc1)c1ccc(Oc2ccc(B(OC(=O)C(N)CCC(N)=O)c3ccccc3)cc2)cc1 (centres unmarked) [Example 388, bis(4,4′-(phenyl-glutamineboryl)phenyl)ether] | – | 0.67 | x-Fold ([1]; polyglutamine aggregation inhibitory activity, Table 1, listed as 7085): 0.67; TGase activity remaining (% of DMSO control = 100) (transglutaminase (TGase); TGase inhibitory activity value, Table 1, listed as 7085): 41 |
| 500 nM | 500 nM | 15 | 15 | – | CNCCOB(c1ccccc1)c1ccc(Oc2ccc(B(OCCNC)c3ccc(CO)cc3)cc2)cc1 [Example 391, (4-(phenyl-N-methylaminoethoxyboryl)phenyl)(4′-(hydroxymethylphenyl-N-methylaminoethoxyboryl)phenyl)ether] | 0.32 | 0.32 | – |
| 1500 nM | 1500 nM | 41 | 41 | – | NC(=O)CCC(N)C(=O)OB(c1ccccc1)c1ccc(Oc2ccc(B(OC(=O)C(N)CCC(N)=O)c3ccc(CO)cc3)cc2)cc1 (centres unmarked) [Example 394, (4-(phenyl-glutamineboryl)phenyl)(4′-(hydroxymethylphenyl-glutamineboryl)phenyl)ether] | 0.44 | 0.44 | – |
| – | – | 3 | 3 | 1200 nM | NCCNCCOB(c1ccccc1)c1ccc(Oc2ccc(B(OCCNCCN)c3ccccc3)cc2)cc1 [Example 396, bis(4,4′-(phenyl-N-aminoethyl-aminoethoxyboryl)phenyl)ether] | 0.58 | 0.58 | – |
| – | – | 29 | – | 1500 nM | NCCCCC(N)C(=O)OB(c1ccccc1)c1ccc(COCc2ccc(B(OC(=O)C(N)CCCCN)c3ccccc3)cc2)cc1 (centres unmarked) [Example 409, bis(4,4′-(phenyl-lysineboryl)benzyl)ether] | – | 0.86 | x-Fold ([1]; polyglutamine aggregation, Truncated N-terminal huntington 150 Q-EGFP-Neuron 2a cells): 0.86; TGase activity remaining (% of DMSO control = 100) (transglutaminase (TGase); TGase inhibitory activity measurement, unit not given): 29 |
| – | – | 130 | – | 2000 nM | COc1ccc(B(O)c2ccc(COCc3ccc(B(O)c4ccc(OC)cc4)cc3)cc2)cc1 [Example 410, bis(4,4′-(p-methoxy-phenyl-hydroxyboryl)benzyl)ether] | – | 0.90 | – |
